Data reported in patent publication US20250295777A1, “HOMEOPATHIC PHARMACEUTICAL COMPOSITION FOR TREATING UPPER AND LOWER RESPIRATORY TRACT DISEASES” (priority 2022, published 2025).
Counter-ions that a name gives are not always drawn. Like-named read-outs stand apart in the source and are kept apart here.

Key:
[1] = tested on: upper respiratory tract ciliated epithelium; assay: lifespan of the ciliated epithelium cilia / cell survival time in vitro (test sample vs isotonic NaCl control); assay type: cell-based, human (patients)
Excerpt: (§1) To determine the efficiency of mucociliary clearance, the authors of the present invention measured the frequency (Frequency) and period (Time) of the upper respiratory tract ciliated epithelium cilia beating using methods for determining these parameters that are well known to persons skilled in the art and have been repeatedly described in the prior art. The authors of the invention took into account that sufficient functioning of the ciliated epithelium cilia is the most important parameter of the effectiveness of mucociliary clearance (Duchateau G S M J E, Graamans K., Zuidema J., Merkus F W H M.—Laryngoscope 1985; 95:854-859), and, therefore, they measured the percentage of ciliated epithelium cells with motile cilia (Movement). Non-limiting (illustrative) examples of methods for determining the parameters of the upper respiratory tract ciliated epithelium cilia beating are given in V. V. Shabalin et al., Biophysical Methods for Studying Mucociliary Transport of the Normal and Pathological Upper and Lower Respiratory Tract.—See in Problems of Therapeutic and Surgical Pulmonology, collection of conference materials, Saint Petersburg, 1997, pp. 44-45.
(§2) The effect of the composition of the invention on the performance of the ciliated epithelium cilia and the lifespan of the ciliated epithelium was studied in comparison with separate components (Apis mellifica, Eupharsia officinalis, Allium cepa, Tatrarus stibiatus, Hepar sulphur, and Arnica montana separately), with the composition according to patent RU 2748548 and with an isotonic NaCl solution (0.9% solution).
(§3) The study included patients with acute and chronic rhinosinusitis, as well as patients without a history of otolaryngological disorders.
(§4) It is well known to persons skilled in the art that the optimal medium for the ciliated epithelium functioning is a saline (0.9% NaCl solution) and that this medium allows the ciliated epithelium cells to move synchronously and live the longest; therefore, ciliated epithelium treated with a saline was used as a control.
(§5) The results include the following parameters: • Frequency 1, Hz—the beating frequency of the ciliated epithelium cilia in the test sample, • Frequency 2, Hz—the beating frequency of the ciliated epithelium cilia in the control (isotonic NaCl solution), • Time 1, min—lifespan of the ciliated epithelium cilia in the test sample, • Time 2, min—lifespan of the ciliated epithelium cilia in the control.

[2] = tested on: upper respiratory tract ciliated epithelium cilia; assay: beating frequency of the ciliated epithelium cilia (in vitro, test sample vs isotonic NaCl control); assay type: cell-based, human (patients)
Excerpt: as §1, §2, §3, §4, §5

[3] = tested on: ciliated epithelium (upper respiratory tract epithelium cilia); details: cited from earlier work
[4] = average values over 5 patients / dilutions D3-C30
[5] = dilution C3, single patient sample
[6] = dilution C6, single patient sample
[7] = dilution C30, single patient sample
[8] = dilution D3, single patient sample
[9] = dilution D6, single patient sample

## O.O.O.O=C([O-])[C@H]([O-])[C@@H]([O-])C(=O)[O-].O=C([O-])[C@H]([O-])[C@@H]([O-])C(=O)[O-].[K+].[K+].[Sb+3].[Sb+3] [Tartarus stibiatus, tartrate of antimony and potassium]
[1]; [4]
  Time 1, min (lifespan of the ciliated epithelium cilia in the test sample): 24.6 min
[1]; [5]
  Time 1, min (lifespan of the ciliated epithelium cilia in the test sample): 28 min
[1]; [6]
  Time 1, min (lifespan of the ciliated epithelium cilia in the test sample): 20 min
[1]; [7]
  Time 1, min (lifespan of the ciliated epithelium cilia in the test sample): 28 min
[1]; [8]
  Time 1, min (lifespan of the ciliated epithelium cilia in the test sample): 27 min
[1]; [9]
  Time 1, min (lifespan of the ciliated epithelium cilia in the test sample): 20 min
[2]; [4]
  Frequency 1, Hz (beating frequency of the ciliated epithelium cilia in the test sample): 5.2134 Hz
[2]; [5]
  Frequency 1, Hz (beating frequency of the ciliated epithelium cilia in the test sample): 6.503 Hz
[2]; [6]
  Frequency 1, Hz (beating frequency of the ciliated epithelium cilia in the test sample): 5.283 Hz
[2]; [7]
  Frequency 1, Hz (beating frequency of the ciliated epithelium cilia in the test sample): 4.092 Hz
[2]; [8]
  Frequency 1, Hz (beating frequency of the ciliated epithelium cilia in the test sample): 5.177 Hz
[2]; [9]
  Frequency 1, Hz (beating frequency of the ciliated epithelium cilia in the test sample): 5.012 Hz

## CC(C)(O)C(Cl)(Cl)Cl [chlorbutol]
[3]
  ciliary beat frequency (CBF) reduced by: 100%

## C[C@@H]1CN([C@H]2CC[C@](C#N)(c3ccc(F)cc3)CC2)CC[C@]1(C(=O)O)c1ccccc1 [levocabastine]
[3]
  ciliary beat frequency (CBF) reduced by: 13%

## C[CH2][Hg][S]c1ccccc1C(=O)[O-].[Na+] [thiomersal]
[3]
  ciliary beat frequency (CBF) reduced by: 100%

## Cc1cc(C(C)(C)C)cc(C)c1CC1=NCCN1 [xylometazoline hydrochloride]
[3]; 0.1% solution
  ciliary beat frequency (CBF) reduced by: 69%

## neomycin
[3]
  ciliary beat frequency (CBF) reduced by: 82%
